What was measured:
Type in all cases: in vivo
[1] = test system: unfed adult fleas (Ctenocephalides felis); experiment: Ctenocephalides felis; oral (CTECFE); settings: Example J; 4 ppm active compound in citrated cattle blood, oral uptake
Experimental: Ctenocephalides felis; Oral (CTECFE)
(§1) • Solvent: Dimethyl sulphoxide
To produce a suitable preparation of active compound, 1 part by weight of active compound is mixed with the stated amount of solvent. Part of the concentrate is diluted with citrated cattle blood, and the desired concentration is prepared.
20 unfed adult fleas (Ctenocephalides felis) are placed into a chamber whose top and bottom ends are closed with gauze. A metal cylinder whose bottom end is closed with parafilm is placed onto the chamber. The cylinder contains the blood/active compound preparation, which can be taken up by the fleas through the parafilm membrane. The blood is warmed to 37° C., but the flea chamber is at room temperature.
After the desired period of time, the kill in % is determined. 100% means that all fleas have been killed; 0% means that none of the fleas have been killed.
(§2) In this test, for example, the following compounds of the preparation examples show good activity: see table

[2] = test system: larvae of the mustard beetle (Phaedon cochleariae); experiment: Phaedon test (PHAECO spray treatment); settings: 4 ppm active compound, sprayed Chinese cabbage discs
Experimental: Phaedon Test (PHAECO Spray Treatment)
• Solvents: 78 parts by weight of acetone • 1.5 parts by weight of dimethylformamide • Emulsifier: 0.5 part by weight of alkylaryl polyglyycol ether
After the desired period of time, the effect in % is determined. 100% means that all beetle larvae have been killed; 0% means that none of the beetle larvae have been killed.

[3] = test system: Lucilia cuprina larvae; experiment: Lucilia cuprina test (LUCICU); settings: treated horsemeat
Experimental: Lucilia cuprina Test (LUCICU)
Description for Examples A and B
as §1
To produce a suitable preparation of active compound, 1 part by weight of active compound is mixed with the stated amount of water and the concentrate is diluted with water to the desired concentration.
Containers containing horsemeat treated with the active compound preparation of the desired concentration are populated with Lucilia cuprina larvae.
After the desired period of time, the kill in % is determined. 100% means that all larvae have been killed; 0% means that none of the larvae have been killed.
as §2

[4] = test system: caterpillars of the army worm (Spodoptera frugiperda); experiment: Spodoptera frugiperda test (SPODFR spray treatment); settings: Example I; 4 ppm active compound; sprayed maize leaf discs
Experimental: Spodoptera frugiperda Test (SPODFR Spray Treatment)
• Solvents: 78.0 parts by weight of acetone • 1.5 parts by weight of dimethylformamide • Emulsifier: 0.5 part by weight of alkylaryl polyglyycol ether
After the desired period of time, the effect in % is determined. 100% means that all caterpillars have been killed; 0% means that none of the caterpillars have been killed.

[5] = test system: adult Musca domestica; experiment: Musca domestica test (MUSCDO); settings: Example C, treated sponge
Experimental: Musca domestica Test (MUSCDO)
as §1
To produce a suitable preparation of active compound, 1 part by weight of active compound is mixed with the stated amount of water, and the concentrate is diluted with water to the desired concentration.
Containers containing a sponge treated with the preparation of active compound of the desired concentration are populated with adult Musca domestica.
After the desired period of time, the kill in % is determined. 100% means that all flies have been killed; 0% means that none of the flies have been killed.
as §2

[6] = test system: greenhouse red spider mite (Tetranychus urticae); experiment: Tetranychus test, OP-resistant (TETRUR spray treatment); settings: sprayed bean leaf discs
Experimental: Tetranychus Test, OP-resistant (TETRUR Spray Treatment)
• Solvents: 78 parts by weight of acetone • 1.5 parts by weight of dimethylformamide • Emulsifier: 0.5 part by weight of alkylaryl polyglycol ether
(§3) To produce a suitable preparation of active compound, 1 part by weight of active compound is mixed with the stated amounts of solvents and emulsifier, and the concentrate is diluted with emulsifier-containing water to the desired concentration.
Discs of bean leaves (Phaseolus vulgaris) heavily infested by all stages of the greenhouse red spider mite (Tetranychus urticae) are sprayed with a preparation of active compound of the desired concentration.
After the desired period of time, the effect in % is determined 100% means that all spider mites have been killed; 0% means that none of the spider mites have been killed.
as §2

[7] = test system: eggs, larvae and pupae of the whitefly (Bemisia tabaci); experiment: Bemisia tabaci test, normally sensitive strains (BEMITA); settings: Example E; 0.8 ppm active compound; sprayed cotton plants
Experimental: Bemisia tabaci Test, Normally Sensitive Strains, (BEMITA)
• Solvent: 7 parts by weight of dimethylformamide • Emulsifier: 10 parts by weight of alkylaryl polyglycol ether
as §3
Cotton plants (Gossypium hirsutum) infected by eggs, larvae and pupae of the whitefly (Bemisia tabaci) are treated by being sprayed with the preparation of active compound at the desired concentration.
After the desired period of time, the kill in % is determined 100% means that all animals have been killed; 0% means that none of the animals have been killed.
as §2

[8] = Example A, 0.8 ppm active compound
[9] = Example F, 0.00128 ppm active compound
[10] = Example H, 0.032 ppm active compound

Row | Compound | Kill rate in % after 2 days [1] [%] | Kill rate in % after 7 days ([2]; Example G) [%] | Kill rate in % after 2 days [3, 8] [%] | Kill rate in % after 2 days ([5]; 100 ppm active compound) [%] | also measured
1 | CC[C@H](C)[C@H]1OC2(C=C[C@@H]1C)C[C@@H]1C[C@@H](C/C=C(\C)[C@@H](OC3CC(OC)C(OC(=O)CN4CCCCC4)C(C)O3)[C@@H](C)/C=C/C=C3\CO[C@@H]4[C@H](O)C(C)=CC(C(=O)O1)[C@]34O)O2 (some centres unmarked) [Example 50] | 50 | 83 | 100 | 90 | Kill rate in % after 5 days [4]: 100%
2 | CC[C@H](C)[C@H]1OC2(C=C[C@@H]1C)C[C@@H]1C[C@@H](C/C=C(\C)[C@@H](OC3CC(OC)C(OC(=O)c4ccccc4)C(C)O3)[C@@H](C)/C=C/C=C3\CO[C@@H]4[C@H](O)C(C)=CC(C(=O)O1)[C@]34O)O2 (some centres unmarked) [Example 2] | – | – | – | – | Kill rate in % after 5 days [6, 9]: 80%
3 | CC[C@H](C)[C@H]1OC2(C=C[C@@H]1C)C[C@@H]1C[C@@H](C/C=C(\C)[C@@H](OC3CC(OC)C(OC(=O)CN(C)C)C(C)O3)[C@@H](C)/C=C/C=C3\CO[C@@H]4[C@H](O)C(C)=CC(C(=O)O1)[C@]34O)O2 (some centres unmarked) [Example 57] | 40 | 100 | 100 | 90 | –
4 | CC[C@H](C)[C@H]1OC2(C=C[C@@H]1C)C[C@@H]1C[C@@H](C/C=C(\C)[C@@H](OC3CC(OC)C(OC(=O)Cc4nn(C)c(=O)n4C)C(C)O3)[C@@H](C)/C=C/C=C3\CO[C@@H]4[C@H](O)C(C)=CC(C(=O)O1)[C@]34O)O2 (some centres unmarked) [Example 60] | 50 | 100 | 90 | 100 | –
5 | CC[C@H](C)[C@H]1OC2(CC[C@@H]1C)C[C@@H]1C[C@@H](C/C=C(\C)[C@@H](OC3CC(OC)C(OC(=O)C(C)(C)n4cncn4)C(C)O3)[C@@H](C)/C=C/C=C3\CO[C@@H]4[C@H](O)C(C)=CC(C(=O)O1)[C@]34O)O2 (some centres unmarked) [Example 23] | – | 100 | – | – | Kill rate in % after 5 days [6, 10]: 70%
6 | COC1CC(OC2C(C)=CCC3CC(CC4(CCC(C)C(C(C)C)O4)O3)OC(=O)C3C=C(C)C(O)C4OCC(=CC=CC2C)C34O)OC(C)C1OC(C)=O [4′-O-acetyl-4′-O-de(2,6-dideoxy-3-O-methyl-α-L-arabino-hexopyranosyl)-5-O-demethyl-25-de(1-methylpropyl)-22,23-dihydro-25-(1-methylethyl)-avermectin A1a, reference compound] | 20 | 0 | – | – | Kill rate in % after 5 days [6, 10]: 0%; Kill rate in % after 5 days [4]: 0%
7 | CC[C@H](C)[C@H]1OC2(C=C[C@@H]1C)C[C@@H]1C[C@@H](C/C=C(\C)[C@@H](OC3CC(OC)C(OC(=O)C4(C)COCOC4)C(C)O3)[C@@H](C)/C=C/C=C3\CO[C@@H]4[C@H](O)C(C)=CC(C(=O)O1)[C@]34O)O2 (some centres unmarked) [Example 14] | – | – | 100 | – | Kill rate in % after 7 days [7]: 80%
8 | 4′-O-acetyl-4′-O-de(2,6-dideoxy-3-O-methyl-α-L-arabino-hexopyrano-syl)-5-O-demethyl-avermectin A1a [reference compound] | – | – | 30 | 60 | Kill rate in % after 7 days ([2]; Example D): 0%; Kill rate in % after 2 days ([3]; Example B, 0.16 ppm active compound): 0%; Kill rate in % after 7 days [7]: 0%; Kill rate in % after 5 days [6, 9]: 0%; Kill rate in % after 2 days ([5]; 0.8 ppm active compound): 0%
